Assay results published in patent publication US20220174947A1, “ANTIMICROBIAL MIXTURE CONTAINING 4-(3-ETHOXY-4-HYDROXYPHENYL)BUTAN-2-ONE AND AN ALCOHOL COMPOUND, AND COSMETIC COMPOSITION CONTAINING SAME” (L'OREAL, priority 2018, published 2022).

How the values were obtained:
Experiment in all cases: Synergistic antimicrobial activity as MIC, 96-well microplate, optical density at 620 nm
Type in all cases: cell-based
[1] = system: Pseudomonas aeruginosa ATCC 9027; details: for % MIC of A alone: Pseudomonas aeruginosa, growth <= 25%
From the text: with: • MIC of A with B: minimum concentration of product A in the combination A+B which makes it possible to obtain an inhibitory effect; • MIC of B with A: minimum concentration of product B in the combination A+B which makes it possible to obtain an inhibitory effect; • MIC of A: minimum inhibitory concentration of product A alone; • MIC of B: minimum inhibitory concentration of product B alone. This formula was described for the first time in the article by F. C. Kull, […], and R. L. Mayer, Applied Microbiology 9:538-541, 1961. […] When the FIC index value is less than or equal to 1, it is considered that the combination of test compounds has a synergistic effect. The microbial strain Pseudomonas aeruginosa ATCC 9027 and a double-concentration nutrient broth liquid culture medium were used. A 96-well microplate at an incubation temperature of 32.5° C. is used. […] For each compound: […] 50 μl of each of the daughter solutions obtained containing compound A and 50 μl of each of the daughter solutions obtained containing compound B are added to the microplate wells. 100 μl of Sabouraud liquid nutrient broth inoculated at double concentration with the strain Aspergillus niger are also added thereto. A positive microbial growth control was also prepared. […] An absorbance control was performed in parallel on compounds A and B alone. This control corresponds to 100 μl of double concentration sterile Sabouraud liquid nutrient broth+100 μl of double concentration compound A or B. […] The test as described above (tests, absorbance control and growth control) was performed again to test the combination A+B on the following strains Enterococcus faecalis, Staphylococcus aureus, Pseudomonas aeruginosa, Candida albicans, where appropriate.

[2] = system: Staphylococcus aureus ATCC 6538; details: for % MIC of A alone: Staphylococcus aureus, growth <= 25%
From the text: (§1) FIC Index=(MIC of A with B/MIC of A)+(MIC of B with A/MIC of B [Math. 1]
(§2) with: • MIC of A with B: minimum concentration of product A in the combination A+B which makes it possible to obtain an inhibitory effect; • MIC of B with A: minimum concentration of product B in the combination A+B which makes it possible to obtain an inhibitory effect; • MIC of A: minimum inhibitory concentration of product A alone; • MIC of B: minimum inhibitory concentration of product B alone. This formula was described for the first time in the article by F. C. Kull, P. C. Eisman, H. D. Sylwestrowka, and R. L. Mayer, Applied Microbiology 9:538-541, 1961.
The microbial strain Staphylococcus aureus ATCC 6538 and a double-concentration nutrient broth liquid culture medium were used.
(§3) A 96-well microplate at an incubation temperature of 32.5° C. is used.
(§4) The incubation time of the microplate is: • from 24 to 30 h under aerobic conditions for microbial Aspergillus niger ATCC 6275; • from 18 to 24 h under aerobic conditions for Candida albicans ATCC 10231, Pseudomonas aeruginosa ATCC 9027 and Staphylococcus aureus ATCC 6538; • from 24 to 48 h under aerobic conditions for Enterococcus faecalis ATCC 33186.
(§5) For each compound: A=4-(3-ethoxy-4-hydroxyphenyl) butan-2-one compound B=alcohol compound A 10% (weight/volume) stock solution was prepared by mixing 1 g of compound in 9 ml of aqueous 1% agar solution. Successive dilutions were made with the 1% agar solution.
(§6) 50 μl of each of the daughter solutions obtained containing compound A or B are added to the microplate wells. 100 μl of Sabouraud liquid nutrient broth inoculated at double concentration with the Aspergillus niger strain and 50 μl of aqueous 1% agar solution are also added thereto.
(§7) 50 μl of each of the daughter solutions obtained containing compound A and 50 μl of each of the daughter solutions obtained containing compound B are added to the microplate wells. 100 μl of Sabouraud liquid nutrient broth inoculated at double concentration with the strain Aspergillus niger are also added thereto.
(§8) A positive microbial growth control was also prepared. The positive microbial growth control corresponds to a mixture of 100 μl of aqueous 1% agar solution with 100 μl of Sabouraud liquid nutrient broth inoculated at double concentration with the strain Aspergillus niger in the absence of compounds A and B.
(§9) An absorbance control was performed in parallel on compounds A and B alone. This control corresponds to 100 μl of double concentration sterile Sabouraud liquid nutrient broth+100 μl of double concentration compound A or B.
(§10) In the three cases (absorbance control, growth control and test), the final volume present in each of the microplate wells is 200 μl.
(§11) The test as described above (tests, absorbance control and growth control) was performed again to test the combination A+B on the following strains Enterococcus faecalis, Staphylococcus aureus, Pseudomonas aeruginosa, Candida albicans, where appropriate.

[3] = system: Enterococcus faecalis ATCC 33186; details: for % MIC of A alone: Enterococcus faecalis, growth <= 25%
From the text: as §1, §2
The microbial strain Enterococcus faecalis ATCC 33186 and a double-concentration BHI (Brain Heart Infusion) broth liquid culture medium were used.
as §3, §4, §5, §6, §7, §8, §9, §10, §11

% MIC of A alone ([1]; Example 4): 1% | % MIC of A alone ([1]; Example 6): 1% | % MIC of A alone ([2]; Example 2): 1% | % MIC of A alone ([2]; Example 6): 1% | % MIC of A alone ([3]; Example 3): 0.5% | % MIC of A alone ([3]; Example 4): 0.5% | % MIC of A alone ([3]; Example 6): 0.5%
SMILES: CCOc1cc(CCC(C)=O)ccc1O [A, 4-(3-ethoxy-4-hydroxyphenyl)butan-2-one]
microbial growth percentage ([1]; 0.0625 A, 0 B4 weight %): 63% | microbial growth percentage ([1]; 0.0625 A, 0 B6 weight %): 80% | microbial growth percentage ([1]; 0.125 A, 0 B4 weight %): 60% | microbial growth percentage ([1]; 0.125 A, 0 B6 weight %): 63% | microbial growth percentage ([1]; 0.25 A, 0 B4 weight %): 64% | microbial growth percentage ([1]; 0.25 A, 0 B6 weight %): 56% | microbial growth percentage ([1]; 0.5 A, 0 B4 weight %): 62% | microbial growth percentage ([1]; 0.5 A, 0 B6 weight %): 61% | microbial growth percentage ([1]; 1 A, 0 B4 weight %): 7% | microbial growth percentage ([1]; 1 A, 0 B6 weight %): −17% | microbial growth percentage ([2]; 0.0625 A, 0 B2 weight %): 52% | microbial growth percentage ([2]; 0.0625 A, 0 B6 weight %): 65% | microbial growth percentage ([2]; 0.125 A, 0 B2 weight %): 49% | microbial growth percentage ([2]; 0.125 A, 0 B6 weight %): 75% | microbial growth percentage ([2]; 0.25 A, 0 B2 weight %): 52% | microbial growth percentage ([2]; 0.25 A, 0 B6 weight %): 79% | microbial growth percentage ([2]; 0.5 A, 0 B2 weight %): 75% | microbial growth percentage ([2]; 0.5 A, 0 B6 weight %): 24% | microbial growth percentage ([2]; 1 A, 0 B2 weight %): 2% | microbial growth percentage ([2]; 1 A, 0 B6 weight %): 5% | microbial growth percentage ([3]; 0.0625 A, 0 B3 weight %): 70% | microbial growth percentage ([3]; 0.0625 A, 0 B4 weight %): 44% | microbial growth percentage ([3]; 0.0625 A, 0 B6 weight %): 35% | microbial growth percentage ([3]; 0.125 A, 0 B3 weight %): 31% | microbial growth percentage ([3]; 0.125 A, 0 B4 weight %): 39% | microbial growth percentage ([3]; 0.125 A, 0 B6 weight %): 43% | microbial growth percentage ([3]; 0.25 A, 0 B3 weight %): 27% | microbial growth percentage ([3]; 0.25 A, 0 B4 weight %): 38% | microbial growth percentage ([3]; 0.25 A, 0 B6 weight %): 34% | microbial growth percentage ([3]; 0.5 A, 0 B3 weight %): 14% | microbial growth percentage ([3]; 0.5 A, 0 B4 weight %): 12% | microbial growth percentage ([3]; 0.5 A, 0 B6 weight %): 0%
